In patent US7589097B2, “Triazol[4,5-d] pyramidine derivatives and their use as purinergic receptor antagonists” (Vernalis Research Limited, priority 2001, dated 2009):

| Structure (SMILES) | melting point [°C] |
| --- | --- |
| CC(C)CC(=O)NCc1cccc(Cn2nnc3c(-c4ccco4)nc(N)nc32)c1 [Example 85, N-(3-(5-amino-7-(2-furyl)-3H-[1,2,3]triazolo[4,5-d]pyrimidin-3-ylmethyl)benzyl)-3-methylbutanamide] | 215.9 to 217.5 |
| Cc1c(Cn2nnc3c(-c4ccco4)nc(N)nc32)cccc1[N+](=O)[O-] [Example 88, 7-(2-furyl)-3-(2-methyl-3-nitrobenzyl)-3H-[1,2,3]triazolo[4,5-d]pyrimidine-5-amine] | 258.8 to 259 |
| NCc1cccc(Cn2nnc3c(-c4ccn[nH]4)nc(N)nc32)c1 [Example 101, 3-(3-Aminomethylbenzyl)-7-(1H-pyrazol-3-yl)-3H-[1,2,3]triazolo[4,5-d]pyrimidine-5-amine] | 279.9 to 280.3 |
| Nc1nc(-c2ccco2)c2nnn(Cc3csc(-c4ccccc4)n3)c2n1 [Example 108, 7-(2-furyl)-3-(2-phenylthiazol-4-ylmethyl)-3H-[1,2,3]triazolo[4,5-d]pyrimidine-5-amine] | 215 to 215.3 |
| Cc1csc(-c2nc(N)nc3c2nnn3Cc2cccc([N+](=O)[O-])c2)n1 [Example 109, 7-(4-methyl-2-thiazolyl)-3-(3-nitrobenzyl)-3H-[1,2,3]triazolo[4,5-d]pyrimidine-5-amine] | 289.8 to 289.9 |
| Nc1nc(-c2ccco2)c2nnn(Cc3ccc(Cl)c([N+](=O)[O-])c3)c2n1 [Example 110, 3-(4-chloro-3-nitrobenzyl)-7-(2-furyl)-3H-[1,2,3]triazolo[4,5-d]pyrimidine-5-amine] | 247.4 to 247.5 |
| Nc1nc(-c2ccco2)c2nnn(Cc3ccc(Cl)c(N)c3)c2n1 [Example 114, 3-(3-amino-4-chlorobenzyl)-7-(2-furyl)-3H-[1,2,3]triazolo[4,5-d]pyrimidine-5-amine] | 256.7 to 257.1 |
| Nc1nc(-c2ccco2)c2nnn(Cc3ccc(Cl)cc3[N+](=O)[O-])c2n1 [Example 119, 3-(4-chloro-2-nitrobenzyl)-7-(2-furyl)-3H-[1,2,3]triazolo[4,5-d]pyrimidine-5-amine] | > 230 |
| Cc1ccc(-c2nc(N)nc3c2nnn3Cc2ccc([N+](=O)[O-])c(C)c2)o1 [Example 123, 7-(5-methyl-2-furyl)-3-(3-methyl-4-nitrobenzyl)-3H-[1,2,3]triazolo[4,5-d]pyrimidine-5-amine] | 214.6 to 216.2 |
| Cc1ccc(-c2nc(N)nc3c2nnn3Cc2ccc(N)c(C)c2)o1 [Example 124, 3-(4-amino-3-methylbenzyl)-7-(5-methyl-2-furyl)-3H-[1,2,3]triazolo[4,5-d]pyrimidine-5-amine] | 215.7 to 216.7 |
| Nc1nc(-c2ccco2)c2nnn(Cc3ccc(F)c([N+](=O)[O-])c3)c2n1 [Example 129, 3-(4-fluoro-3-nitrobenzyl)-7-(2-furyl)-3H-[1,2,3]triazolo[4,5-d]pyrimidine-5-amine] | 266.5 to 266.7 |
| Nc1nc(-c2ccccc2)c2nnn(Cc3cccc([N+](=O)[O-])c3)c2n1 [Example 130, 3-(3-nitrobenzyl)-7-phenyl-3H-[1,2,3]triazolo[4,5-d]pyrimidine-5-amine] | 149 to 149.6 |
| COc1cc(Cn2nnc3c(-c4ccco4)nc(N)nc32)ccc1[N+](=O)[O-] [Example 133, 7-(2-furyl)-3-(3-methoxy-4-nitrobenzyl)-3H [1,2,3]triazolo[4,5-d]pyrimidine-5-amine] | 209.7 to 209.9 |

Further lines, results first:

| melting point [°C] | Structure (SMILES) |
| --- | --- |
| 247.1 to 247.2 | Cc1c(N)cccc1Cn1nnc2c(-c3ccco3)nc(N)nc21 [Example 89, 3-(3-amino-2-methylbenzyl)-7-(2-furyl)-3H-[1,2,3]triazolo[4,5-d]pyrimidine-5-amine] |
| 268.5 to 269.1 | Cc1ccc(Cn2nnc3c(-c4ccco4)nc(N)nc32)cc1N [Example 90, 3-(3-amino-4-methylbenzyl)-7-(2-furyl)-3H-[1,2,3]triazolo[4,5-d]pyrimidine-5-amine] |
| 284.3 to 284.5 | Cc1noc(C)c1Cn1nnc2c(-c3ccco3)nc(N)nc21 [Example 91, 3-(3,5-dimethylisoxazol-4-ylmethyl)-7-(2-furyl)-3H-[1,2,3]triazolo[4,5-d]pyrimidine-5-amine] |
| 237.8 to 238 | Cc1cc(Cn2nnc3c(-c4ccco4)nc(N)nc32)ccc1[N+](=O)[O-] [Example 94, 7-(2-furyl)-3-(3-methyl-4-nitrobenzyl)-3H-[1,2,3]triazolo[4,5-d]pyrimidine-5-amine] |
| 249.8 to 250 | Cc1cccnc1Cn1nnc2c(-c3ccco3)nc(N)nc21 [Example 95, 7-(2-furyl)-3-(3-methyl-2-pyridylmethyl)-3H-[1,2,3]triazolo[4,5-d]pyrimidine-5-amine] |
| 226.6 to 226.9 | Cc1ccc([N+](=O)[O-])c(Cn2nnc3c(-c4ccco4)nc(N)nc32)c1 [Example 96, 7-(2-furyl)-3-(5-methyl-2-nitrobenzyl)-3H-[1,2,3]triazolo[4,5-d]pyrimidine-5-amine] |
| 285.7 to 285.9 | Cc1nc(Cn2nnc3c(-c4ccco4)nc(N)nc32)cs1 [Example 100, 7-(2-furyl)-3-(2-methylthiazol-4-ylmethyl)-3H-[1,2,3]triazolo[4,5-d]pyrimidine-5-amine] |
| 249.9 to 250.5 | Cc1ccc(N)c(Cn2nnc3c(-c4ccco4)nc(N)nc32)c1 [Example 104, 3-(2-amino-5-methylbenzyl)-7-(2-furyl)-3H-[1,2,3]triazolo[4,5-d]pyrimidine-5-amine] |
| 263.2 to 263.5 | N#Cc1ccnc(Cn2nnc3c(-c4ccco4)nc(N)nc32)c1 [Example 105, 3-(4-cyano-2-pyridylmethyl)-7-(2-furyl)-3H-[1,2,3]triazolo[4,5-d]pyrimidine-5-amine] |
| 288.1 to 288.2 | Cc1cnc(Cn2nnc3c(-c4ccco4)nc(N)nc32)cn1 [Example 106, 7-(2-furyl)-3-(5-methyl-2-pyrazinylmethyl)-3H-[1,2,3]triazolo[4,5-d]pyrimidine-5-amine] |
| 244.1 to 244.6 | Nc1nc(-c2ccco2)c2nnn(Cc3ccc4nonc4c3)c2n1 [Example 111] |
| 190.4 to 191.4 | COCc1cccc(Cn2nnc3c(-c4ccco4)nc(N)nc32)n1 [Example 112, 7-(2-furyl)-3-(6-methoxymethyl-2-pyridylmethyl)-3H-[1,2,3]triazolo[4,5-d]pyrimidine-5-amine] |
| 229.6 to 230.3 | Cc1cnccc1Cn1nnc2c(-c3ccco3)nc(N)nc21 [Example 126, 7-(2-furyl)-3-(3-methyl-4-pyridylmethyl)-3H-[1,2,3]triazolo[4,5-d]pyrimidine-5-amine] |
| 129.1 to 131 | Nc1nc(-c2ccco2)c2nnn(Cc3cnccn3)c2n1 [Example 128, 7-(2-furyl)-3-(2-pyrazinylmethyl)-3H-[1,2,3]triazolo[4,5-d]pyrimidine-5-amine] |
| 225.7 to 225.8 | Cc1ccnc(Cn2nnc3c(-c4ccco4)nc(N)nc32)c1 [Example 131, 7-(2-furyl)-3-(4-methyl-2-pyridylmethyl)-3H-[1,2,3]triazolo[4,5-d]pyrimidine-5-amine] |
| 208.6 to 208.8 | CCc1cccc(Cn2nnc3c(-c4ccco4)nc(N)nc32)n1 [Example 135, 3-(6-ethyl-2-pyridylmethyl)-7-(2-furyl)-3H-[1,2,3]triazolo[4,5-d]pyrimidine-5-amine] |
